For 101 molecules, cytotoxicity results are on record in ChEMBL document CHEMBL3507680, “University of Dundee, Gates Library screen for HepG2 cell viability”.

This data set can be described thus: Human HepG2 cell viability assay in 384 well format. The following applies: HepG2 cells, read-out: Inhibition. On the set-up: dose 125 nL, time 70.5 hour; concentration not given beside the values. In kind it is toxicity, cell-based.

Consider `O[C@@H]1CN(Cc2cccnc2)C[C@H]1Oc1ccccc1`, for which the cytotoxicity at 70.5 h was 0.823%.

Take `Cc1nn(C)c(C)c1CN1CCCC1c1nccc(CN(C)C)n1` (stereo unspecified): the cytotoxicity at 70.5 h is -0.0769%.

Take `O=C(c1cncs1)N1CCC(Cc2cnc3[nH]ccc3c2)CC1`: the cytotoxicity at 70.5 h was 15.3%.

`Cc1cc(C2CCN(C(=O)c3cnn(C)c3)CC2)ccn1`: the cytotoxicity at 70.5 h is -5.33%.

`CC(C)N1CCC(Cc2cncc(-c3cccc(C(=O)O)c3)n2)C1` (stereo unspecified): the cytotoxicity at 70.5 h was -5.63%.

Regarding `CNC(=O)c1ccc(C2CN(C(=O)c3cnn(C)c3)CCO2)nc1` (stereo unspecified), the cytotoxicity at 70.5 h was -4.81%.

`Cn1cc(C(=O)N2CCCC(c3cc(O)n(C)n3)C2)cn1` (stereo unspecified): the cytotoxicity at 70.5 h was determined as 7.43%.

Regarding `CC(=O)N1CCCCC1c1nc(C)cc(-c2ccccc2C(=O)O)n1` (stereo unspecified), the cytotoxicity at 70.5 h was -1.42%.

For the molecule `CNC(=O)C1(c2cnccn2)CCCN1C(=O)c1ccccc1F` (stereo unspecified), the cytotoxicity at 70.5 h was -3.62%.

Consider `CNc1cccc(C2CCCN(C(=O)c3cnccn3)C2)n1` (stereo unspecified), for which the cytotoxicity at 70.5 h is -0.4%.

On to `O=C(c1cnccn1)N1CCC(Cc2cnc3[nH]ccc3c2)CC1`, for which the cytotoxicity at 70.5 h was -2.92%.

As to `Cc1ccccc1-c1cncc(C2CCN(C3CCOCC3)CC2)n1`, the cytotoxicity at 70.5 h is 1%.

On to `COc1ccc(CN(C)[C@@H]2CN(C(=O)c3cnn(C)c3)C[C@H]2O)cc1`, for which the cytotoxicity at 70.5 h was -6.51%.

In the case of `Cc1ccccc1-c1cncc(C2CCN(S(=O)(=O)N(C)C)CC2)n1`, the cytotoxicity at 70.5 h is -2.74%.

With `COc1ccc(CN(C)[C@@H]2CN(C(=O)c3cccnc3)C[C@H]2O)cc1`, the cytotoxicity at 70.5 h is 2.56%.

In the case of `CCCN(C(=O)c1cnc(C)cn1)c1nc2c(s1)CCc1c-2cnn1C`, the cytotoxicity at 70.5 h turned out to be 14.9%.

Take `O=C(c1cccs1)N1CCc2c(nc(N3CCCC3)[nH]c2=O)C1`: the cytotoxicity at 70.5 h was -0.974%.

In the case of `CC(C)C(=O)N1CCC(n2nc(-c3ccco3)ccc2=O)CC1`, the cytotoxicity at 70.5 h came to 15.9%.

As to `CS(=O)(=O)c1snnc1C1CCCN(Cc2ccncc2)C1` (stereo unspecified), the cytotoxicity at 70.5 h is -11.9%.

As to `Cc1nc(O)c2nnn(C[C@H]3CCCN3C(=O)c3ccc(F)cc3)c2n1`, the cytotoxicity at 70.5 h is -4.53%.

For `Cc1nc(O)c2nnn(C[C@H]3CCCN3C(=O)C3CCCC3)c2n1`, the cytotoxicity at 70.5 h is -4.22%.

Take `COc1ccc(CN(C)[C@@H]2CN(C(=O)c3cccn3C)C[C@H]2O)cc1`: the cytotoxicity at 70.5 h came to 16.9%.

In the case of `CC(=O)N1CCC(c2nn(C)c3nccnc23)C1` (stereo unspecified), the cytotoxicity at 70.5 h was -5.3%.

In the case of `CN1CCCC(c2cccc(CCC(N)=O)n2)C1` (stereo unspecified), the cytotoxicity at 70.5 h was -3.92%.

For `CNC(=O)C1(c2cnccn2)CCCN1C(=O)c1ccccn1` (stereo unspecified), the cytotoxicity at 70.5 h worked out at 8.19%.

Take `CNC(=O)C1(c2cnccn2)CCCN1C(=O)c1cccc(C)n1` (stereo unspecified): the cytotoxicity at 70.5 h was -5.53%.

As for `CN1CCCC[C@@H]2[C@H]1[C@@H](c1ccccc1)CCN2C(=O)c1ccncc1`, the cytotoxicity at 70.5 h was -5.64%.

Take `CC(=O)N1CCN(c2cc(CCNC(=O)C(C)C)nc(C3CC3)n2)CC1`: the cytotoxicity at 70.5 h was -7.84%.

With `CN1CC(c2cc(O)nc(NCc3cccc(F)c3)n2)CC1=O` (stereo unspecified), the cytotoxicity at 70.5 h was -10.4%.

As for `CCc1cc(C(=O)N2CCCC2c2nc(C)c(CC)c(O)n2)on1` (stereo unspecified), the cytotoxicity at 70.5 h was -6.15%.

Turning to `CN(CC(=O)NCc1cc2ccccc2o1)S(C)(=O)=O`, the cytotoxicity at 70.5 h was -0.935%.

With `CCN(CCC#N)Cn1ncc2cn(-c3ccccc3)nc2c1=O`, the cytotoxicity at 70.5 h is -2.4%.

On to `COc1ccc(Cl)cc1NCC(=O)N(Cc1ccccn1)C1CC1`, for which the cytotoxicity at 70.5 h was -4.9%.

With `COc1ccccc1OCCNC(=O)NCc1nc(C)no1`, the cytotoxicity at 70.5 h was -6.75%.

In the case of `COCCn1c(C(=O)NC(C(N)=O)C(C)C)cc2ccccc21` (stereo unspecified), the cytotoxicity at 70.5 h is -6.02%.

For the molecule `O=C(NC(C1CC1)C1CC1)c1cccc[n+]1[O-]`, the cytotoxicity at 70.5 h is -2.48%.

For the molecule `COc1c(C2CCCN2c2ncnc3ccsc23)c(C)nn1C` (stereo unspecified), the cytotoxicity at 70.5 h was -3.57%.

As to `CNS(=O)(=O)CC1CCCN1c1ccc(Br)cn1` (stereo unspecified), the cytotoxicity at 70.5 h is -0.632%.

As to `CCc1cnc(CN(C)C2CCN(c3sccc3C#N)C2=O)s1` (stereo unspecified), the cytotoxicity at 70.5 h stood at 13.4%.

Regarding `O=C(NC1(C(=O)NCC2CC2)CCCC1)C1Cc2cc(F)ccc2O1` (stereo unspecified), the cytotoxicity at 70.5 h is -4.27%.

Take `COCCn1c(C(=O)NCC(C)C(=O)O)cc2ccccc21` (stereo unspecified): the cytotoxicity at 70.5 h stood at 0.983%.

Take `COC(=O)C1CCCCN1C(=O)c1ccc(N(C)C)cc1F` (stereo unspecified): the cytotoxicity at 70.5 h was 2.71%.

`Cc1nc(CN(C)C(=O)Nc2cccc(COC(C)C)c2)no1`: the cytotoxicity at 70.5 h was -1.56%.

With `CCCN(C(=O)CN1CCN(CC(C)O)CC1)C1=CCCCC1` (stereo unspecified), the cytotoxicity at 70.5 h was determined as 35.9%.

Regarding `CCC(C)CS(=O)(=O)NCCc1csc(N2CCCC2)n1` (stereo unspecified), the cytotoxicity at 70.5 h was -1.21%.

In the case of `CCc1ncc(CN(C)C2CCN(c3sccc3C#N)C2=O)s1` (stereo unspecified), the cytotoxicity at 70.5 h is -2.11%.

`CN(CC(=O)N(C)C)Cc1ccc(C#N)cc1F`: the cytotoxicity at 70.5 h was found to be 11.5%.

For the molecule `NCC1(CN2CCOCC2)CCCCC1`, the cytotoxicity at 70.5 h came to 14.2%.

Take `CC(NC(=O)c1cccc[n+]1[O-])C1CC1` (stereo unspecified): the cytotoxicity at 70.5 h is -4.24%.

Turning to `CCN(Cc1ccc(C#N)cc1F)C(=O)C(C)(C)C`, the cytotoxicity at 70.5 h was -0.767%.

As for `CC(C)c1cc(C(=O)N2Cc3ccccc3CC2C(=O)O)nn1C` (stereo unspecified), the cytotoxicity at 70.5 h is -2.03%.

On to `CN(CC(=O)N(C)C(c1ccc(Cl)cc1)c1cccnc1)C1CC1` (stereo unspecified), for which the cytotoxicity at 70.5 h is -5.57%.

Regarding `COCCNC(=O)c1ccc(NCc2csc(C)n2)cc1Cl`, the cytotoxicity at 70.5 h is -2.04%.

Turning to `CN(Cc1ccccc1F)C(=O)c1cc(Cl)c[nH]1`, the cytotoxicity at 70.5 h was -2.89%.

For `CN(Cc1ccsc1)C(=O)COC(=O)c1cc(Cl)c[nH]1`, the cytotoxicity at 70.5 h is -2.89%.

As for `CC1COCCN1C(=O)COc1ccc(Oc2ccccn2)cc1` (stereo unspecified), the cytotoxicity at 70.5 h was determined as 1.4%.

On to `O=C(Nc1cc(C(F)(F)F)c[nH]c1=O)C1CCCNC1` (stereo unspecified), for which the cytotoxicity at 70.5 h was -8%.

For `O=C(Nc1cc(C(F)(F)F)c[nH]c1=O)C1CCNCC1`, the cytotoxicity at 70.5 h was -12.8%.

`O=C(Nc1cc(C(F)(F)F)c[nH]c1=O)C1CCCN1` (stereo unspecified): the cytotoxicity at 70.5 h is -10.7%.

Regarding `N#CCCCS(=O)(=O)NC1(c2cccc(Cl)c2)CC1`, the cytotoxicity at 70.5 h is -9.01%.

With `Cc1cc(NCc2cn(C)nc2-c2cccnc2)n(C)n1`, the cytotoxicity at 70.5 h was -2.96%.

Consider `COCC(=O)Nc1ccc(C)cc1-c1nc(C2CC2)no1`, for which the cytotoxicity at 70.5 h was -7.26%.

As to `CN(C)C1(CNC(=O)c2c(O)cc(Cl)cc2Cl)CCOCC1`, the cytotoxicity at 70.5 h is -9.63%.

Regarding `Cc1ccc(NC(=O)N2CC[C@@H](O)C2)c(-c2nc(C3CC3)no2)c1`, the cytotoxicity at 70.5 h was -3.95%.

As to `CCCS(=O)(=O)CCN1CCN(C(C#N)c2ccccc2)CC1` (stereo unspecified), the cytotoxicity at 70.5 h was -8.86%.

`CNS(=O)(=O)CCCN1CCN(C(C#N)c2ccccc2)CC1` (stereo unspecified): the cytotoxicity at 70.5 h is -11.2%.

Turning to `CNC(=O)c1cccc(CN2CCN(C3=NCC(C)(C)S3)CC2)c1`, the cytotoxicity at 70.5 h is -5.92%.

As to `CC(C)c1cc(N2CCC(NS(C)(=O)=O)C2)nc(C(C)C)n1` (stereo unspecified), the cytotoxicity at 70.5 h is -10.9%.

As to `Cc1noc(NCc2cn(C)nc2-c2cccnc2)n1`, the cytotoxicity at 70.5 h was -12.1%.

Consider `CC(NC(=O)N(C)C1CC1)c1ccc(Oc2cccnc2)c(F)c1` (stereo unspecified), for which the cytotoxicity at 70.5 h is -8.76%.

On to `CC(C)S(=O)(=O)CCN1CCN(C(C#N)c2ccccc2)CC1` (stereo unspecified), for which the cytotoxicity at 70.5 h was -7.44%.

On to `Cc1ccc(C(=O)N(CC(=O)O)CC(C)C)cc1F`, for which the cytotoxicity at 70.5 h was -7.92%.

On to `CCN(Cc1ccncc1)C1CCN(c2ccccc2)C1=O` (stereo unspecified), for which the cytotoxicity at 70.5 h is 1.49%.

`Cc1ccc(-c2nnn(CCN3C(=O)CCC3=O)n2)cc1`: the cytotoxicity at 70.5 h is -3.33%.

For the molecule `O=C1CCC(=O)N1CCn1nnc(-c2cccc(Cl)c2)n1`, the cytotoxicity at 70.5 h turned out to be 1.35%.

For `COc1ccc(C)cc1CN(C)CC(N)=O`, the cytotoxicity at 70.5 h is -7.37%.

On to `Cc1noc(C)c1C(=O)N1CCC(n2cccn2)CC1`, for which the cytotoxicity at 70.5 h is -3.66%.

Turning to `CC(C)CCc1noc(C[S+]([O-])CC(=O)NCc2ccccc2)n1` (stereo unspecified), the cytotoxicity at 70.5 h was -1.48%.

As to `Cc1c(NC(=O)NCCO)cccc1OC1CCCC1`, the cytotoxicity at 70.5 h was -8.09%.

Consider `Cc1ccc(N(CCC#N)C(=O)CCc2cscn2)cc1C`, for which the cytotoxicity at 70.5 h is -3.27%.

In the case of `CCN(Cc1nccn1C)C1CCN(c2ccccc2)C1=O` (stereo unspecified), the cytotoxicity at 70.5 h was -2.87%.

Turning to `Cc1c(NC(=O)NC(C)CCO)cccc1OC1CCCC1` (stereo unspecified), the cytotoxicity at 70.5 h is -2.19%.

Take `CC(C)c1ccccc1OCCNC(=O)N1CCC2(CC1)OCCO2`: the cytotoxicity at 70.5 h is -2.15%.

With `COc1c(C2CCCN2C(=O)c2ccc(C(N)=O)s2)c(C)nn1C` (stereo unspecified), the cytotoxicity at 70.5 h is -7.38%.

As for `CC(C)Cc1nc(C[S+]([O-])CC(=O)NCc2ccccc2)no1` (stereo unspecified), the cytotoxicity at 70.5 h was -5.17%.

`COc1nc(C)ccc1CNC(=O)NC(c1ncc(C)s1)C1CC1` (stereo unspecified): the cytotoxicity at 70.5 h was -2.73%.

On to `NC(=O)COc1cccc(Cn2cccn2)c1`, for which the cytotoxicity at 70.5 h was -3.94%.

Regarding `CN1CCC(Nc2ccc(F)cc2OCC(F)(F)F)C1=O` (stereo unspecified), the cytotoxicity at 70.5 h is -0.0891%.

Consider `CC(C(N)=O)N1CCN(c2ncc(Cl)cn2)CC1` (stereo unspecified), for which the cytotoxicity at 70.5 h was -5.36%.

For `CC(C(=O)N1CCCC1)N1CCN(c2ncc(Cl)cn2)CC1` (stereo unspecified), the cytotoxicity at 70.5 h is -3.08%.

Consider `CN1CCC(Nc2ccc(Cl)cc2OCC(F)(F)F)C1=O` (stereo unspecified), for which the cytotoxicity at 70.5 h was -3.11%.

On to `CC(C(=O)N1CCCCC1)N1CCN(c2ncc(Cl)cn2)CC1` (stereo unspecified), for which the cytotoxicity at 70.5 h was -0.389%.

For `CNC(=O)[C@@H](C)NC(=O)c1cc(-c2ccc(F)cc2)c(C)s1`, the cytotoxicity at 70.5 h is -3.7%.

On to `CNC(=O)CNC(=O)NCc1cc2c(s1)CCC(C)(C)C2`, for which the cytotoxicity at 70.5 h was 2.16%.

As to `COC(C(=O)NC1CCN(S(C)(=O)=O)CC1)c1ccccc1` (stereo unspecified), the cytotoxicity at 70.5 h was determined as 15.6%.

As for `O=C(NCCN1CCOCC1)NCc1ccc(-n2cccn2)cc1`, the cytotoxicity at 70.5 h was found to be 1.89%.

Consider `CCc1ncncc1C(=O)NCCNS(=O)(=O)c1ccccc1`, for which the cytotoxicity at 70.5 h was found to be 13.9%.

For the molecule `O=S(=O)(c1ccc(Cl)cc1)N1CCc2nc(C3CCNCC3)ncc2C1`, the cytotoxicity at 70.5 h was -4.46%.

In the case of `Cc1noc(C)c1S(=O)(=O)N1CCc2nc(C3CCNCC3)ncc2C1`, the cytotoxicity at 70.5 h was -6.62%.

On to `O=C(Nc1cc(C(F)(F)F)c[nH]c1=O)C1CCCCN1` (stereo unspecified), for which the cytotoxicity at 70.5 h is -8.9%.

For the molecule `O=C(c1cc(C2CCCCN2CCO)n[nH]1)N1CCOCC1` (stereo unspecified), the cytotoxicity at 70.5 h is -9.24%.
